Paper PMC6587462 (Journal of Clinical Pharmacology, 2018)
pKi: −log10 of the molar value. “And” between values parts separate entries of the source, which are not always exact repeats. Equal entries are not always repeated. “Also recorded” adds a separate entry of the source. Where two headings read alike, the source gives them in different places. Values belong to the compound of their own block, whether it stands above or below them.

Tests used:
[1] = Absolute / oral bioavailability; assay type: in vivo; settings: human, plasma
[2] = absorption, binding, metabolic, or excretory level; cited from earlier work
NG108‐15 cells = settings: netupitant and palonosetron combined; cited from earlier work
plasma proteins = assay: Binding to plasma proteins; assay type: in vitro ADME
[3] = Binding to plasma proteins; assay type: in vitro ADME; settings: human, plasma
[4] = cited from earlier work; for AUCinf / CL/F / Cmax / Tmax / Vz/F / t1/2: Study 8, healthy volunteers (22), NEPA FDC, mean (CV%); for AUCinf and Cmax under fed (high-fat breakfast) vs fasting conditions: open, randomized, 2-way crossover study in healthy volunteers
[5] = molecular target: T1, P‐glycoprotein (P‐gp) efflux transporter (Homo sapiens, UniProt P08183); settings: in vitro, cited from earlier work; for inhibitor of P-gp efflux transporter: parent drugs
T1 sequence (P08183 whole entry): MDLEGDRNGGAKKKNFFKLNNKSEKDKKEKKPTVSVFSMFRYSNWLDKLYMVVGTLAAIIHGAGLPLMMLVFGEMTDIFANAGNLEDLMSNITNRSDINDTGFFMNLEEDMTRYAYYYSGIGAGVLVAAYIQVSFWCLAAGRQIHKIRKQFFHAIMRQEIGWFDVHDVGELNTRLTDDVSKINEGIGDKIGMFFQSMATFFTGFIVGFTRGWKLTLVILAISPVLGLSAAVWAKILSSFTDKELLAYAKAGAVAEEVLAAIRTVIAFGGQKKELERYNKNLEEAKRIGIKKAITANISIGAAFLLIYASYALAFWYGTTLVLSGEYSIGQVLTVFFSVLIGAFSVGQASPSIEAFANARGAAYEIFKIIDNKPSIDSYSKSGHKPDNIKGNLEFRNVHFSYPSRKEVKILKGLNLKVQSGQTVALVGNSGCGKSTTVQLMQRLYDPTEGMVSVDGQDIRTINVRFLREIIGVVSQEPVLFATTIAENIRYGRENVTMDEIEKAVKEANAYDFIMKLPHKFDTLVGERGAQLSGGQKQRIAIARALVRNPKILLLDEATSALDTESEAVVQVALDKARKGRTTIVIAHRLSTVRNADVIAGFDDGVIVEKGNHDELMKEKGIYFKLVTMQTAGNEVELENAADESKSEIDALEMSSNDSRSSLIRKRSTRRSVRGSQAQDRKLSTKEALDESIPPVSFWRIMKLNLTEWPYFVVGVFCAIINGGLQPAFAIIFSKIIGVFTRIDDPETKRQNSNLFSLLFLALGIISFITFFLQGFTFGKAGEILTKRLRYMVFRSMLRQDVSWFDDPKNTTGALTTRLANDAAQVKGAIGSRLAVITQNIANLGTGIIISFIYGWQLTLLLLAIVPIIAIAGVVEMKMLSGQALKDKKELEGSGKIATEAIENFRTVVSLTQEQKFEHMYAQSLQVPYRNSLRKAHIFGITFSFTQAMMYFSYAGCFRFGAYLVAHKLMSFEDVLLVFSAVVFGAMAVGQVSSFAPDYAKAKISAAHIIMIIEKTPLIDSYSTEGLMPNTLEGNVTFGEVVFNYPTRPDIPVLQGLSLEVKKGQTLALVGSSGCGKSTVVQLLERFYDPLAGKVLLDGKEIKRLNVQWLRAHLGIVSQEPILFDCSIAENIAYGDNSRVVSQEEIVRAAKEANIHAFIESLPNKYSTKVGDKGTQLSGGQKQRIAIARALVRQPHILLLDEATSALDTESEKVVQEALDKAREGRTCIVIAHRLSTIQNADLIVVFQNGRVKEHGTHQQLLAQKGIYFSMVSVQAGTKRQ

[6] = cited from earlier work
[7] = for CL/F: Healthy volunteers, Min-Max of study means, single oral NEPA; for plasma concentration as fraction of mean Cmax: at 3 hours after oral NEPA
[8] = intravenous single dose, cited from earlier work
[9] = cited from earlier work; remark: listed apart in the source
[10] = Oral NEPA PK in cancer patients, summary across studies; assay type: in vivo; settings: human, plasma
[11] = Study 5 bioequivalence study, PK after single oral NEPA; assay type: in vivo, human; settings: for CL/F: Study 5, healthy volunteers (47), single oral NEPA FDC, mean (CV%)
clinical [12] = settings: human, in vivo
[13] = Study 9 replicate crossover bioequivalence study; assay type: in vivo, human; settings: for CL/F: Study 9, healthy volunteers (82), NEPA FDC commercial product, mean (CV%)
clinical [14] = settings: human, in vivo, po
[15] = design: species or system human; settings: estimated from t1/2
[16] = Study 4 pilot bioequivalence study, PK after single oral NEPA; assay type: in vivo; settings: human, plasma
[17] = Study 12 PK/safety and DDI study in cancer patients; assay type: in vivo; settings: human, plasma, oral
[18] = Study 11 population PK/pharmacodynamic study in cancer patients; assay type: in vivo, human; settings: population PK modeling in patients
[19] = calculated logP; cited from earlier work
NK1 receptor [20] = molecular target: NK1 receptor (Homo sapiens, UniProt P25103); settings: NG108-15 cells; netupitant and palonosetron combined; cited from earlier work
Chain of NK1 receptor (Homo sapiens, UniProt P25103) (P25103 whole entry, species assumed): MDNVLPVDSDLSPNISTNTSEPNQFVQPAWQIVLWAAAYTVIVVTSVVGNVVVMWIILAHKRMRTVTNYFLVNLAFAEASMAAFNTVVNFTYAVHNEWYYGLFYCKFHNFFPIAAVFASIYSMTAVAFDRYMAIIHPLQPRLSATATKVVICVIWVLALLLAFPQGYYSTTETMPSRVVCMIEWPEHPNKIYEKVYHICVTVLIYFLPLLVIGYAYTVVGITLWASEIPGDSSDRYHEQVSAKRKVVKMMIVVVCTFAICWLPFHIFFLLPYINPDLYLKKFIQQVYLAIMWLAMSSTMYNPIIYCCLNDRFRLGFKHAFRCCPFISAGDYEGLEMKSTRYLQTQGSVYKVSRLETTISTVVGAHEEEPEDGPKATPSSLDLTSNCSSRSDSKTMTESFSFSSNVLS

[21] = after both IV and oral administration; cited from earlier work
[22] = Apical-to-basolateral permeability in MDCK II monolayer; assay type: in vitro ADME, canine; settings: dog
[23] = Study 11 population PK, patients (117), NEPA FDC, cited from earlier work; for CL/F: value (%RSE)
CYP450 isoforms = settings: palonosetron; cited from earlier work
[24] = Biopharmaceutics Classification System class and solubility in water; assay type: physicochemical
[25] = cited from earlier work; remark: listed apart in the source
NK1 receptor [26] = settings: PET; at 6 hours after single 300-mg oral netupitant; cited from earlier work
[27] = Study 10 comparative bioavailability study; assay type: in vivo, human
[28] = molecular target: T1, P‐glycoprotein (P‐gp) efflux transporter; assay: In vitro interaction with P-gp; assay type: in vitro ADME
[29] = Study 2 ADME study of [14C]-netupitant; assay type: in vivo, human; settings: estimated at day 29 after administration
[30] = Apical-to-basolateral permeability in Caco-2 monolayer; assay type: in vitro ADME; settings: human
CYP3A4 = CYP3A4 (Homo sapiens, UniProt P08684); settings: in vitro; cited from earlier work
Chain of CYP3A4 (P08684 whole entry): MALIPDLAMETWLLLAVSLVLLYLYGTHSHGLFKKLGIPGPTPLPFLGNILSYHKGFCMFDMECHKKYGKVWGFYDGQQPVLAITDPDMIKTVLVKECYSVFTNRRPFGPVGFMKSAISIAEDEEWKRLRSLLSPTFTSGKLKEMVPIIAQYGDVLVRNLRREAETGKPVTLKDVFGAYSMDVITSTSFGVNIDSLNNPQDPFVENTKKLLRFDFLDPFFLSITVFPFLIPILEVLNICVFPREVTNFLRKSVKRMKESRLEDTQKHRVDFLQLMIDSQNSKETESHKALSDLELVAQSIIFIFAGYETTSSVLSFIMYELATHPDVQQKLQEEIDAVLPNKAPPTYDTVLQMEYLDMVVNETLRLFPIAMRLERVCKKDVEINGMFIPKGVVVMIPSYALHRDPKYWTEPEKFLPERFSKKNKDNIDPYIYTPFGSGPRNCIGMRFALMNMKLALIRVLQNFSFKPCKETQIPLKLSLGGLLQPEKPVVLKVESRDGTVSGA

[31] = cited from earlier work; remark: listed apart in the source
[32] = Octanol-water partition coefficient; assay type: physicochemical
CYP2D6 = CYP2D6 (Homo sapiens, UniProt P10635); assay: In vitro CYP2D6 inhibition; assay type: in vitro ADME
Chain of CYP2D6 (P10635 whole entry): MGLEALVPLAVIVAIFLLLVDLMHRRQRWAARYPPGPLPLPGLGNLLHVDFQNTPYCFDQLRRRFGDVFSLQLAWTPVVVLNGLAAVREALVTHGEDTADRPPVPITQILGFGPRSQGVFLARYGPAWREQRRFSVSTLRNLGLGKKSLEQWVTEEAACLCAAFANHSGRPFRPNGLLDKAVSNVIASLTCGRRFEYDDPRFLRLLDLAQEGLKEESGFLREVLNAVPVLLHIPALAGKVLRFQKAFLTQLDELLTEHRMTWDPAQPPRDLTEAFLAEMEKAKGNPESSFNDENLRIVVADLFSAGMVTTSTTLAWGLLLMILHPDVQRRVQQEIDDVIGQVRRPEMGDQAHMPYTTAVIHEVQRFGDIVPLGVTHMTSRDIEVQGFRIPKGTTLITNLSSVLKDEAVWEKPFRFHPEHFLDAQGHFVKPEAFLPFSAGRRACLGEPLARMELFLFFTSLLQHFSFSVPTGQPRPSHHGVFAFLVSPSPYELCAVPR

[33] = single-dose NEPA with 400-mg ketoconazole for 12 days vs alone
[34] = single-dose NEPA with daily 600-mg rifampicin for 17 days

bioavailability ([1]; po): ~100%
binding to plasma proteins (plasma proteins): 62%
fraction unbound [3]: 0.38
CL/F [7]: 9.6 to 17.9 L/h
plasma concentration as fraction of mean Cmax [7]: approximately 80%
AUC(0-inf) [10]: 0.0481 to 0.0856 µg·h/mL
Cmax [10]: 0.00085 to 0.00138 µg/mL
Tmax [10]: 3.01 to 5.33 h
Vd/F [10]: 483 to 679 L
CL/F [11]: 9.6 (28.3) L/h
AUC(0-inf) ([11]; human, plasma, po): 0.0567 µg·h/mL
Cmax ([11]; human, plasma, po): 0.00153 µg/mL
Tmax ([11]; human, plasma, po): 4.68 h
Vd/F ([11]; human, plasma, po): 586 L
half-life ([11]; human, plasma, po): 44.2 h
CL renal (clinical [12]): 89.8 mL/min
CL/F [13]: 11.1 (27.6) L/h
AUC(0-inf) ([13]; human, plasma, oral): 0.0482 µg·h/mL
Cmax ([13]; human, plasma, oral): 0.00127 µg/mL
Tmax ([13]; human, plasma, oral): 3.76 h
Vd/F ([13]; human, plasma, oral): 575 L
half-life ([13]; human, plasma, oral): 37.2 h
AUC(0-inf) (clinical [14]): 0.0332 to 0.0567 µg·h/mL
Cmax (clinical [14]): 0.000768 to 0.00153 µg/mL
Tmax (clinical [14]): 3.76 to 4.96 h
Vd/F (clinical [14]): 575 to 962 L
half-life (clinical [14]): 36.9 to 48.3 h
fraction from previous NEPA administration eliminated at next dose ([15]; chemotherapy every 2 weeks): more than 99%
fraction from previous NEPA administration eliminated at next dose ([15]; chemotherapy every 3 weeks): 100%
Tmax [16]: 4.19 h
Vd/F [16]: 658 L
half-life [16]: 42.1 h
absorption lag time [18]: 0.79 h
absorption rate constant [18]: 2.66 h⁻¹
Papp A→B at 0.5 μM [22]: 160 nm/s
Papp A→B at 50 μM [22]: 650 nm/s
Biopharmaceutics Classification System class [24]: 1
Structure (SMILES): O=C1c2cccc3c2[C@H](CCC3)CN1[C@@H]1CN2CCC1CC2 [palonosetron]
PK interaction between netupitant and palonosetron [2]: no relevant PK interactions
combined effect on inhibition of substance P-mediated response (NG108‐15 cells): synergistic effects
AUCinf ([4]; fasted): 33.645 (26.7) ng ⋅ h/mL
CL/F ([4]; fasted): 17.9 (34.1) L/h
Cmax ([4]; fasted): 0.786 (28.4) ng/mL
Tmax ([4]; fasted): 4.34 (19.6) h
Vz/F ([4]; fasted): 905 (20.7) L
t1/2 ([4]; fasted): 36.9 (23.6) h
AUCinf ([4]; fed): 33.199 (20.9) ng ⋅ h/mL
CL/F ([4]; fed): 17.8 (28.0) L/h
Cmax ([4]; fed): 0.768 (20.7) ng/mL
Tmax ([4]; fed): 4.96 (24.3) h
Vz/F ([4]; fed): 962 (24.5) L
t1/2 ([4]; fed): 38.9 (29.1) h
AUCinf and Cmax under fed (high-fat breakfast) vs fasting conditions [4]: similar
substrate of P-gp (MDR1/P-gp) efflux transporter [5]: P‐gp substrate
inhibitor of P-gp efflux transporter [5]: not an inhibitor; also recorded: not a P‐gp inhibitor
solubility in water ([6]; palonosetron): freely soluble
t1/2 ([8]; cancer patients): 49.8 h
t1/2 ([8]; healthy subjects): 37.4 h
effect of coadministration of metoclopramide or aprepitant on pharmacokinetics [9]: did not alter
Vd/F [17]: 633 to 679 L
octanol-water partition coefficient (logP) [19]: 2.72
combined effect on triggering NK1 receptor internalization (NK1 receptor [20]): additive effects
fraction of administered palonosetron dose found in urine [21]: approximately 40%
AUCinf ([23]; mean (CV%)): 68.611 (33.4) ng ⋅ h/mL
Cmax ([23]; mean (CV%)): 1.378 (28.3) ng/mL
Tmax ([23]; mean (CV%)): 3.01 (66.4) h
CL/F [23]: 7.6 (%RSE = 3.64) L/h
CYP isoforms mediating metabolism (CYP450 isoforms): primarily metabolized by CYP2D6 and to a lesser extent by CYP3A4 and CYP1A2

bioavailability ([1]; oral): 63 to 87%
binding to plasma proteins (plasma proteins): > 99%
fraction unbound [3]: < 0.01
CL/F [7]: 16.3 to 26.3 L/h
time after dosing until which plasma concentrations were quantifiable ([7]; after NEPA, M2 below LLOQ thereafter, others up to last observation time): 10 days
plasma concentration as fraction of mean Cmax [7]: approximately 80%
peak plasma concentration of unbound netupitant ([7]; human, in vivo): 0.65 µM
CL/F ([27]; Study 10, healthy volunteers (24), NEPA FDC standard dissolution, mean (CV%)): 25.7 (40.9) L/h
Cmax ([27]; human, plasma, oral): 0.374 µg/mL
Tmax ([27]; human, plasma, oral): 5.15 h
Vd/F ([27]; human, plasma, oral): 3160 L
half-life ([27]; human, plasma, oral): 89.9 h
Cmax [10]: 0.477 to 0.567 µg/mL
Tmax [10]: 4.02 to 4.56 h
Vd/F [10]: 1660 to 2260 L
pKi [28]: 5.52
fold by which unbound peak plasma concentration is lower than P-gp Ki ([28]; human, not told, oral): approximately 5 fold
CL/F [11]: 26.3 (47.4) L/h
Cmax ([11]; human, plasma, po): 0.434 µg/mL
Tmax ([11]; human, plasma, po): 5.07 h
Vd/F ([11]; human, plasma, po): 3310 L
half-life ([11]; human, plasma, po): 95.6 h
CL/F [13]: 26.2 (51.2) L/h
Cmax ([13]; human, plasma, oral): 0.454 µg/mL
Tmax ([13]; human, plasma, oral): 5.01 h
Vd/F ([13]; human, plasma, oral): 2740 L
half-life ([13]; human, plasma, oral): 76.6 h
Cmax (clinical [14]): 0.374 to 0.65 µg/mL
Tmax (clinical [14]): 4.36 to 5.66 h
Vd/F (clinical [14]): 1980 to 3310 L
half-life (clinical [14]): 75.3 to 101 h
fraction from previous NEPA administration eliminated at next dose ([15]; chemotherapy every 2 weeks): approximately 95%
fraction from previous NEPA administration eliminated at next dose ([15]; chemotherapy every 3 weeks): approximately 99%
Tmax [16]: 5.38 h
Vd/F [16]: 2780 L
half-life [16]: 89.2 h
fraction of netupitant eliminated [29]: approximately 90%
absorption lag time [18]: 0.77 h
absorption rate constant [18]: 0.956 h⁻¹
Papp [30]: > 200 nm/s
logP [32]: 5.1
inhibition or induction of CYP2D6 (CYP2D6): not an inhibitor or inducer
Biopharmaceutics Classification System class [24]: 2
Structure (SMILES): Cc1ccccc1-c1cc(N2CCN(C)CC2)ncc1N(C)C(=O)C(C)(C)c1cc(C(F)(F)F)cc(C(F)(F)F)c1 [netupitant]
PK interaction between netupitant and palonosetron [2]: no relevant PK interactions
combined effect on inhibition of substance P-mediated response (NG108‐15 cells): synergistic effects
fold increase of AUCinf [25, 33]: 2.4 fold
fold increase of Cmax [25, 33]: 1.2 fold
fold decrease of AUCinf [25, 34]: 4.9 fold
fold decrease of Cmax [25, 34]: 2.2 fold
CL/F ([4]; fasted): 20.5 (52.7) L/h
Cmax ([4]; fasted): 596.4 (39.1) ng/mL
Tmax ([4]; fasted): 5.14 (17.3) h
Vz/F ([4]; fasted): 2851 (57.3) L
t1/2 ([4]; fasted): 101.2 (52.2) h
CL/F ([4]; fed): 16.3 (23.1) L/h
Cmax ([4]; fed): 649.8 (21.8) ng/mL
Tmax ([4]; fed): 5.66 (17.1) h
Vz/F ([4]; fed): 1984 (40.1) L
t1/2 ([4]; fed): 86.3 (46.2) h
AUCinf and Cmax under fed (high-fat breakfast) vs fasting conditions [4]: similar
substrate of P-gp (MDR1/P-gp) efflux transporter [5]: not a P‐gp substrate; also recorded: not substrates
inhibitor of P-gp efflux transporter [5]: P‐gp inhibitor
solubility in water ([6]; netupitant): very slightly soluble
NK1 receptor occupancy in the striatum (NK1 receptor [26]): 92.5%
Vd/F [17]: 1860 to 2260 L
combined effect on triggering NK1 receptor internalization (NK1 receptor [20]): additive effects
CYP3A4 inhibition (CYP3A4): moderate inhibitor
mass balance recovery of total radioactivity in urine ([31]; [14C]-netupitant and its metabolites M1, M2, and M3): 4.75%
administered dose excreted through the feces (hepatic/biliary route) ([31]; netupitant and its metabolites): 87% and 86.5%
Cmax ([23]; mean (CV%)): 567.3 (38.2) ng/mL
Tmax ([23]; mean (CV%)): 4.02 (59.1) h
t1/2 ([23]; mean (CV%)): 92.8 (32.8) h
CL/F [23]: 20.5 (%RSE 16.3) L/h
